From patent US20120214862A1, “MODULATION OF FACTOR 7 EXPRESSION” (ISIS Pharmaceuticals, Inc., priority 2009, published 2012)
In the oligonucleotide strings, read from the 5' end, every base follows the letter of its sugar. An asterisk marks phosphorothioate; unmarked linkages are phosphodiester. Other units and linkages are bracketed, terminal groups are in braces. A string of capitals states the bases alone. e = 2'-O-(2-methoxyethyl) (MOE); [5mC] = 5-methylcytosine; d = 2'-deoxy (DNA)

The substances below were run on human Factor 7 mRNA (assay: Antisense inhibition of human Factor 7 mRNA in HepB3 cells, lipofectin, 50 nM, real-time RT-PCR). Details: Example 1; HepB3 cells, lipofectin, 50 nM, ~24 h, relative to untreated control cells.
Type: cell-based
Method in brief: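 Cells plated at 4,000 per well were transfected and harvested after approximately 24 hours of treatment. Transcript levels, measured with primer probe set RTS 2927, were normalised to total RNA by RIBOGREEN®. Values are percent inhibition relative to untreated control cells.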
In the case of “407634 (antisense eG*eT*eG*eA*e[5mC]*dT*dG*d[5mC]*dT*dG*d[5mC]*dA*dG*dG*d[5mC]*eA*eG*eT*e[5mC]*e[5mC]) [compound 407634]”, the “% Inhibition (human Factor 7 mRNA)” value is reported as 24%. With “407618 (antisense eG*eT*eA*eT*eT*dT*dT*dT*d[5mC]*d[5mC]*dA*d[5mC]*dA*dT*dG*eG*eA*eT*eA*eT) [compound 407618]” the “% Inhibition (human Factor 7 mRNA)” value was 42%. For “407665 (antisense eG*eT*eT*eA*e[5mC]*dG*dA*dA*dG*dA*d[5mC]*dT*dG*dG*dG*eA*eA*eA*eT*eG) [compound 407665]”, the “% Inhibition (human Factor 7 mRNA)” value was 29%. For “407926 (antisense e[5mC]*e[5mC]*eA*eG*eG*dA*d[5mC]*dA*dA*d[5mC]*d[5mC]*dT*dT*dG*dG*e[5mC]*eA*e[5mC]*eT*e[5mC]) [compound 407926]”, the “% Inhibition (human Factor 7 mRNA)” value was 79%. With “407620 (antisense eA*eG*eG*eA*e[5mC]*d[5mC]*dT*dG*d[5mC]*d[5mC]*dA*dT*dG*dG*dA*e[5mC]*eA*e[5mC]*eT*e[5mC]) [compound 407620]” the “% Inhibition (human Factor 7 mRNA)” value was 79%. With “407894 (antisense eG*eT*eT*e[5mC]*e[5mC]*dG*dG*d[5mC]*d[5mC]*d[5mC]*dT*d[5mC]*dG*dA*dA*eG*eG*e[5mC]*eA*eG) [compound 407894]” the “% Inhibition (human Factor 7 mRNA)” value was 77%. “407652 (antisense eT*eG*eG*eG*eA*dG*d[5mC]*dT*dA*d[5mC]*dA*dG*d[5mC]*d[5mC]*dT*e[5mC]*eA*eA*eA*e[5mC]) [compound 407652]” was tested, and the “% Inhibition (human Factor 7 mRNA)” value was 30%. For “407622 (antisense eT*e[5mC]*eA*e[5mC]*e[5mC]*dA*dA*d[5mC]*dA*dA*d[5mC]*dA*dG*dG*dA*e[5mC]*e[5mC]*eT*eG*e[5mC]) [compound 407622]”, the “% Inhibition (human Factor 7 mRNA)” value was 55%.

Same assay, conditions: Example 4; HepB3 cells, lipofectin, 50 nM, ~24 h, relative to untreated control
For “422265 (antisense eG*e[5mC]*dG*dG*dA*dA*dG*dA*dA*dG*dG*dG*dA*d[5mC]*dG*eG*eA*eA*eG*eG) [compound 422265]”, the “% Inhibition (human Factor 7 mRNA)” value was 34%.

Same assay, conditions: Example 6 microwalk, nucleobases 15098 to 15122 of SEQ ID NO: 1; HepB3, lipofectin, 50 nM, ~24 h
For “422211 (antisense eA*e[5mC]*eA*dG*d[5mC]*dA*d[5mC]*dA*d[5mC]*dA*dT*dG*dG*dA*dG*dT*d[5mC]*eA*eG*e[5mC]) [compound 422211]”, the “% Inhibition (human Factor 7 mRNA)” value was 42%. For “422136 (antisense e[5mC]*eA*eG*e[5mC]*eA*d[5mC]*dA*d[5mC]*dA*dT*dG*dG*dA*dG*dT*e[5mC]*eA*eG*e[5mC]*eA) [compound 422136]”, the “% Inhibition (human Factor 7 mRNA)” value was 57%. For “422212 (antisense eG*eA*e[5mC]*dA*dG*d[5mC]*dA*d[5mC]*dA*d[5mC]*dA*dT*dG*dG*dA*dG*dT*e[5mC]*eA*eG) [compound 422212]”, the “% Inhibition (human Factor 7 mRNA)” value was 30%.

Same assay, conditions: HepB3 cells, lipofectin, 50 nM antisense oligonucleotide, approximately 24 hours, primer probe set RTS 2927, relative to untreated control
In the case of “416569 (antisense eG*e[5mC]*e[5mC]*eT*eG*dG*dT*dG*dT*dG*d[5mC]*dA*d[5mC]*dA*d[5mC]*eA*eT*eT*eG*eT) [compound 416569]”, the “% Inhibition of human Factor 7 mRNA levels” value is reported as 12%. For “416530 (antisense eA*eG*eG*eG*eT*dA*dG*d[5mC]*d[5mC]*dT*dT*dT*dG*d[5mC]*d[5mC]*eT*eT*eG*eG*e[5mC]) [compound 416530]”, the “% Inhibition of human Factor 7 mRNA levels” value was 35%. With “416462 (antisense eG*eG*e[5mC]*eA*eG*dT*d[5mC]*d[5mC]*dT*dG*dG*dG*dT*d[5mC]*dA*eT*e[5mC]*eA*eG*e[5mC]) [compound 416462]” the “% Inhibition of human Factor 7 mRNA levels” value was 60%. “416425 (antisense eA*eA*eG*e[5mC]*eA*dG*dA*dA*dG*dG*d[5mC]*dA*dG*dA*dG*eG*eA*eG*e[5mC]*e[5mC]) [compound 416425]” was tested, and the “% Inhibition of human Factor 7 mRNA levels” value was 13%. For “416463 (antisense eT*eG*e[5mC]*eT*eG*d[5mC]*dA*dG*dG*d[5mC]*dA*dG*dT*d[5mC]*d[5mC]*eT*eG*eG*eG*eT) [compound 416463]”, the “% Inhibition of human Factor 7 mRNA levels” value was 39%. “416535 (antisense eG*e[5mC]*eA*eG*eG*dA*dT*dG*d[5mC]*dA*d[5mC]*dA*d[5mC]*d[5mC]*dA*eG*eG*eG*e[5mC]*eT) [compound 416535]” was tested, and the “% Inhibition of human Factor 7 mRNA levels” value was 47%. “416553 (antisense eG*eG*eT*eT*e[5mC]*dT*d[5mC]*dT*dG*d[5mC]*dA*d[5mC]*dA*dG*dG*eG*eT*eA*eG*eA) [compound 416553]” was tested, and the “% Inhibition of human Factor 7 mRNA levels” value was 56%. With “416511 (antisense eT*eT*eG*e[5mC]*eT*dG*dG*dG*dA*dG*dG*dA*d[5mC]*dG*dA*eG*eG*e[5mC]*e[5mC]*eT) [compound 416511]” the “% Inhibition of human Factor 7 mRNA levels” value was 35%. In the case of “416491 (antisense eG*eA*eG*eA*eA*dG*dG*dG*dT*dT*dG*d[5mC]*dA*dG*dG*e[5mC]*eA*eG*eG*eA) [compound 416491]”, the “% Inhibition of human Factor 7 mRNA levels” value is reported as 2%. In the case of “416512 (antisense eG*eA*e[5mC]*eG*eA*d[5mC]*d[5mC]*dT*dT*dT*dG*d[5mC]*dT*dG*dG*eG*eA*eG*eG*eA) [compound 416512]”, the “% Inhibition of human Factor 7 mRNA levels” value is reported as 43%.

Same assay, conditions: HepB3 cells; gapmers (5-10-5, 3-14-3, 2-13-5 MOE) targeted to nucleobases 4868 to 4899 of SEQ ID NO: 1
In the case of “422297 (antisense e[5mC]*e[5mC]*d[5mC]*dG*dA*dG*dT*dT*d[5mC]*dT*dG*d[5mC]*dA*dG*dG*eA*eG*e[5mC]*eG*eG) [compound 422297]”, the “% Inhibition of human Factor 7 mRNA levels” value is reported as 63%. In the case of “422218 (antisense e[5mC]*eG*eA*dG*dT*dT*d[5mC]*dT*dG*d[5mC]*dA*dG*dG*dA*dG*d[5mC]*dG*eG*e[5mC]*e[5mC]) [compound 422218]”, the “% Inhibition of human Factor 7 mRNA levels” value is reported as 70%.

Same assay, conditions: HepB3 cells; gapmers targeted to nucleobases 11830 to 11869 of SEQ ID NO: 1 (Table 9)
For “422163 (antisense eA*eG*eA*d[5mC]*dA*dA*dT*dG*dG*dT*d[5mC]*dA*dG*dG*dG*d[5mC]*dT*eG*eG*eT) [compound 422163]”, the “% Inhibition of human Factor 7 mRNA levels” value was 56%. For “422160 (antisense e[5mC]*eA*eA*dT*dG*dG*dT*d[5mC]*dA*dG*dG*dG*d[5mC]*dT*dG*dG*dT*eT*eT*eT) [compound 422160]”, the “% Inhibition of human Factor 7 mRNA levels” value was 42%. With “422250 (antisense e[5mC]*eT*dG*dG*d[5mC]*dT*dG*dA*dG*dG*dA*dG*dA*d[5mC]*dA*eA*eT*eG*eG*eT) [compound 422250]” the “% Inhibition of human Factor 7 mRNA levels” value was 54%. In the case of “422173 (antisense e[5mC]*eT*eG*dG*d[5mC]*dT*dG*dA*dG*dG*dA*dG*dA*d[5mC]*dA*dA*dT*eG*eG*eT) [compound 422173]”, the “% Inhibition of human Factor 7 mRNA levels” value is reported as 51%.

Same assay, conditions: HepB3 cells; gapmers targeted to nucleobases 13760 to 13789 of SEQ ID NO: 1 (Table 10)
For “422258 (antisense eG*e[5mC]*d[5mC]*dA*d[5mC]*d[5mC]*d[5mC]*dG*d[5mC]*d[5mC]*dG*dG*d[5mC]*dT*d[5mC]*eT*eG*e[5mC]*eT*e[5mC]) [compound 422258]”, the “% Inhibition of human Factor 7 mRNA levels” value was 66%. With “422261 (antisense eT*eG*d[5mC]*dG*d[5mC]*d[5mC]*dA*d[5mC]*d[5mC]*d[5mC]*dG*d[5mC]*d[5mC]*dG*dG*e[5mC]*eT*e[5mC]*eT*eG) [compound 422261]” the “% Inhibition of human Factor 7 mRNA levels” value was 47%.

Same assay, conditions: HepB3 cells; gapmers targeted to nucleobases 14707 to 14732 of SEQ ID NO: 1 (Table 11)
With “422203 (antisense e[5mC]*eA*eG*d[5mC]*d[5mC]*dT*dG*dA*dG*dG*d[5mC]*d[5mC]*dA*dG*d[5mC]*dA*dG*eA*eT*e[5mC]) [compound 422203]” the “% Inhibition of human Factor 7 mRNA levels” value was 52%. For “422278 (antisense eG*e[5mC]*d[5mC]*dT*dG*dA*dG*dG*d[5mC]*d[5mC]*dA*dG*d[5mC]*dA*dG*eA*eT*e[5mC]*eA*e[5mC]) [compound 422278]”, the “% Inhibition of human Factor 7 mRNA levels” value was 64%.
